# Laboratory results as given in patent US9073982B2, “Targets for regulation of angiogenesis” (The University of North Carolina at Chapel Hill, priority 2008, dated 2015).
# “Also recorded” adds a separate entry of the source.
# Assays:
# [1] = test system: mouse endothelial cells (MEC); assay: Endothelial cell tube formation assay, MEC cells; type: cell-based; details: for inhibition of SFRP2 induced tube formation: SFRP2 7 nM or 30 nM, tacrolimus 1 μM-100 uM, 8 hours
# Experimental: The tube formation properties of SFRP2 on mouse endothelial cells (MEC) cells were evaluated using an endothelial cell tube formation assay. ECMATRIX (Chemicon) was thawed, diluted and solidified in a 96 well plate according to the manufacturer's instructions. 1×10^4 cells/well in 150 μl of DMEM (celigro) with 10% FBS (HyClone) and a concentration range (7-7000 pM) of SFRP2 (US Biologicals) were seeded onto the matrix and returned to 37° C., 5% CO2 for 8 hours. Images were acquired using the Nikon Eclipse TS100 microscope at 4× magnification with a Nikon CoolPix 995 digital camera. Results were quantified by counting the number of branch points.
# (§1) To evaluate whether tacrolimus inhibits SFRP2 induced tube formation, MEC cells were treated as above with SFRP2 7 nM with and without tacrolimus 100 uM for 8 hours and branch points were determined as described above. To evaluate whether tacrolimus reversed established tubes, cells were incubated with SFRP2 7 nM for 8 hours and then BSA or tacrolimus 100 μM was added to SFRP2 treated cells for an additional 4 hours, and then the number of branch points were counted. […] Tacrolimus was not cytotoxic to MEC cells, as only 5% of tacrolimus-treated cells took up trypan blue dye (data not shown).
# (§2) The tube formation properties of SFRP2 on MEC cells were evaluated using an endothelial cell tube formation assay. ECMATRIX (Chemicon) was thawed, diluted and solidified in a 96 well plate according to the manufactures instructions. 1×10^4 cells/well in 150 μl of DMEM (cellgro) with 10% FBS (HyClone) and a concentration range (3-3000 pM) of SFRP2 (US Biologicals) were seeded onto the matrix and returned to 37° C., 5% CO2 for 8 hours. Images were acquired using the Nikon Eclipse TS100 microscope at 4× magnification with a Nikon CoolPix 995 digital camera. Results were quantified by counting the number of branch point. To evaluate whether tacrolimus inhibits SFRP2 induced tube formation, MEC cells were treated as above with SFRP2 30 nM with and without tacrolimus (1 μM-100 uM) for 8 hours and branch points were determined as described above. To evaluate whether inhibitors of SFRP2-mediated angiogenesis would inhibit the growth of SVR tumor cells, SVR cells were treated with tacrolimus (1 μM-100 μM) or with a rabbit polyclonal antibody to SFRP-2 (H-140) (Santa Cruz Biotechnology, Santa Cruz, Calif., catalogue 4 sc-13940) in the tube formation assay.
# [2] = test system: MEC cells; assay: Trypan blue uptake (cytotoxicity) in MEC cells; type: cell-based, mouse; details: tacrolimus-treated MEC cells
# Experimental: as §1
# [3] = test system: SVR angiosarcoma cells; assay: SVR angiosarcoma cell tube formation assay; type: cell-based, mouse
# Experimental: as §2
# As a further test of the contribution of SFRP2 to endothelial tube formation, it was evaluated whether loss of function of SFRP2 would inhibit SVR angiosarcoma tube formation. This was studied two different ways, first with a blocking antibody to SFRP2, and then using siRNA to SFRP2. SVR cells were plated in MATRIGEL in a tube formation assay and treated with a polyclonal antibody to SFRP2. […] After 72 h of transfection using LIPOFECTAMINE™ RNAiMAX Transfection reagent (Invitrogen) according to the manufacturer's protocol, cells were harvested and ready for Western blot analyses and tube formation assay.
# Monoclonal antibodies for the epitope corresponding to AbB (AA202-AA220) were prepared. […] The angiosarcoma cells were suspended in 150 μl of antibody containing growth media for 90 different samples and control media, After 6 hours, pictures were taken and the number of branch points for each well was counted. […]
# [4] = test system: 2H11 cells; assay: 2H11 endothelial MATRIGEL tube formation assay; type: cell-based, mouse; details: for inhibition of SFRP2 stimulated endothelial tube formation: SFRP2 stimulated 2H11 cells; for inhibition of VEGF stimulated endothelial tube formation: VEGF stimulated 2H11 cells
# Excerpt: The ability for tacrolimus to inhibit SFRP2 and VEGF stimulated 2H11 endothelial tube formation in vitro was studied in a MATRIGEL tube formation assay.
# [5] = test system: SVR angiosarcoma xenografts; assay: SVR angiosarcoma xenografts in nude mice; type: in vivo
# Experimental: To test the ability of tacrolimus to inhibit angiogenesis in vivo, SVR mouse angiosarcoma cells (0.5×10^6) were injected into the flank of 6-week-old nude male mice obtained from Charles River Breeding Laboratories. Treatment was initiated on the day after inoculation. Mice received 3 mg/kg/daily tacrolimus or vehicle control suspended in 20% Intralipid (Baxter Healthcare, Deerfield, Ill.) in a total volume of 0.3 ml intraperitoneally (i.p.), and were treated daily for 19 days. Serial caliper measurements of perpendicular diameters were used to calculate tumor volume using the following formula: (shortest diameter)^2×(longest diameter)×0.52. Differences in tumor volume over time were analyzed with a two way ANOVA. A P value of ≦0.05 indicated a statistically significant reduction in tumor growth of the treated group compared to the control group. […] Treatment with tacrolimus reduced mean tumor volume by 46% at day 19 (589±129 mm^3 vs 315±93 mm^3, two-way ANOVA, p=0.04, FIG. 26).
# The ability of a monoclonal antibody recognizing SFRP2 to inhibit tumor growth in vivo was tested in a nude mouse assay. The SFRP2 MAb subclone 80.8.6 was first tested with SVR angiosarcoma xenografts. Six week old nude mice were injected with 1×10^6 SVR angiosarcoma cells. The day after injections treated mice received SFRP2 MAb(80.8.6) 4 mg/kg i.v. twice weekly (n=5), and controls received equal volumes of buffer. At day 14 there was a 65% decrease in tumor volume (*p=0.03, two-tailed student's t-test) (FIG. 34).
# [6] = test system: MMTV-neu transgenic mouse tumors; assay: MMTV-neu transgenic mouse tumor growth; type: in vivo
# Experimental: In a second study, MMTV-neu transgenic mice were treated with tacrolimus 3 mg/kg/daily or no treatment. Treatment began when tumors were palpable and continued for 21 days. Tumor volumes were monitored with serial ultrasounds. A two-tailed T-test was used to determine the difference between growth rates of the tumors between treated and non-treated tumors.
# [7] = tacrolimus 3 mg/kg/daily i.p., day 19
compound,measurement,setting,value
C=CC[C@@H]1/C=C(\C)C[C@H](C)C[C@H](OC)[C@H]2O[C@@](O)(C(=O)C(=O)N3CCCC[C@H]3C(=O)O[C@H](/C(C)=C/[C@@H]3CC[C@@H](O)[C@H](OC)C3)[C@H](C)[C@@H](O)CC1=O)[C@H](C)C[C@@H]2OC [tacrolimus],inhibition at 1 µM,"[1]; Mus musculus, Endothelial cell, tacrolimus 1 μM, SFRP2 30 nM, read-out: inhibition of SFRP2 induced tube formation",64%
same,reversal of established SFRP2-induced tubes,"[1]; SFRP2 7 nM 8 hours, then tacrolimus 100 μM for 4 hours",reversed SFRP2-induced tube formation; also recorded: reverses SFRP2-induced mouse endothelial cell tube formation
same,inhibition of SFRP2 induced tube formation,[1],inhibits SFRP2-induced mouse endothelial cell tube formation; also recorded: inhibits tube formation in SFRP2-induced MEC cells
same,inhibition of SFRP2 induced tube formation,[1]; listed as Tacrolimus,inhibited SFRP2 induced tube formation
same,treated cells that took up trypan blue dye,[2],5%
same,inhibition of SVR angiosarcoma tube formation,[3],inhibited by tacrolimus; also recorded: inhibits tube formation in SVR angiosarcoma cells
same,inhibition of SFRP2 stimulated endothelial tube formation,[4],inhibits SFRP2-induced mouse endothelial cell tube formation
same,inhibition of SFRP2 stimulated endothelial tube formation,[4]; listed as Tacrolimus,inhibited endothelial tube formation
same,inhibition of VEGF stimulated endothelial tube formation,[4],inhibits VEGF-induced mouse endothelial cell tube formation
same,inhibition of VEGF stimulated endothelial tube formation,[4]; listed as Tacrolimus,inhibited endothelial tube formation
same,growth of SVR angiosarcoma xenografts,[5]; nude mice,effective at suppressing the growth; also recorded: inhibits the growth
same,"signs of toxicity (diarrhea, infection, lethargy, weight loss)","[5]; tacrolimus 3 mg/kg/daily i.p., 19 days",no signs of toxicity
same,mean tumor volume,[5]; [7],315±93 mm^3
same,reduction of mean tumor volume,[5]; [7],46%
same,growth rate of MMTV-neu tumors,"[6]; mouse, in vivo",inhibits the growth rate
same,"signs of toxicity (diarrhea, infection, lethargy, weight loss)","[6]; tacrolimus 3 mg/kg/daily, 21 days",no signs of toxicity
same,reduction in tumor growth rate,"[6]; tacrolimus 3 mg/kg/daily, day 21",59%
